Data as given in ChEMBL document CHEMBL1146818, “Yeast and mammalian alpha-glucosidase inhibitory constituents from Himalayan rhubarb Rheum emodi Wall.ex Meisson” (Bioorg Med Chem Lett, 2004).
The source made the active and inactive calls. The calls are words filed in the database; no cut-off is given here.

Legend:
[1] = Inhibitory activity against yeast alpha-glucosidase; active; conditions: Saccharomyces cerevisiae
[2] = biological target: Sucrase-isomaltase, intestinal (Rattus norvegicus) (UniProt P23739); assay: Inhibitory activity against rat alpha-glucosidase; moderate activity observed
[3] = biological target: Sucrase-isomaltase, intestinal (Rattus norvegicus) (UniProt P23739); assay: Inhibitory activity against rat alpha-glucosidase; mild activity observed
[4] = Inhibitory activity against yeast alpha-glucosidase; mild activity observed; conditions: Saccharomyces cerevisiae

Sequence of Sucrase-isomaltase, intestinal (Rattus norvegicus) (P23739 1-1013 limits assumed): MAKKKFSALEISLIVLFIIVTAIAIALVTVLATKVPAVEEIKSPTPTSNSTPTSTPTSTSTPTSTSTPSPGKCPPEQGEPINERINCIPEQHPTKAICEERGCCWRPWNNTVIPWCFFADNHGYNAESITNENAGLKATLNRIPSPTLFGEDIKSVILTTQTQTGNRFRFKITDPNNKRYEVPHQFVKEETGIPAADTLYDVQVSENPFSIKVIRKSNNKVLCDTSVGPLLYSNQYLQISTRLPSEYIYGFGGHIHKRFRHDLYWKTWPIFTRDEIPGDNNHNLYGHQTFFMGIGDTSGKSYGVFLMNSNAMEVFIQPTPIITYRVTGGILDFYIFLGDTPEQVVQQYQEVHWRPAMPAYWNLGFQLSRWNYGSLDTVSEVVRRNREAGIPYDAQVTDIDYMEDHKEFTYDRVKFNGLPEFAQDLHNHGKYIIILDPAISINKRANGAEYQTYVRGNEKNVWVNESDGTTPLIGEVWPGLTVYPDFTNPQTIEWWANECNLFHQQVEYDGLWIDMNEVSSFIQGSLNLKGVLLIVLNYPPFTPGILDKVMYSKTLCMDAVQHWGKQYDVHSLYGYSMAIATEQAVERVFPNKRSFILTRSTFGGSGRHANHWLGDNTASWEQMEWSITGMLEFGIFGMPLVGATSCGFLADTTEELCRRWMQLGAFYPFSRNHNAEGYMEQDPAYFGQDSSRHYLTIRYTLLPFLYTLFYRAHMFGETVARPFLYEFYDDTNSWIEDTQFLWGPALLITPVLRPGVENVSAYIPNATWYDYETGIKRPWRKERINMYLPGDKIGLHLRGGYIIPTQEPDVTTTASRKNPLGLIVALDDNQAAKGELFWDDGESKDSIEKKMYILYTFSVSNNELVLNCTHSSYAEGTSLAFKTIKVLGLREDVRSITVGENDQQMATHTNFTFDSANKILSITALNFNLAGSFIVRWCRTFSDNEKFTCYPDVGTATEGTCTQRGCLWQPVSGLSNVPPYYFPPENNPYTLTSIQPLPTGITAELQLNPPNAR
Sequence of Sucrase-isomaltase, intestinal (Rattus norvegicus) (P23739 1014-1841 limits assumed): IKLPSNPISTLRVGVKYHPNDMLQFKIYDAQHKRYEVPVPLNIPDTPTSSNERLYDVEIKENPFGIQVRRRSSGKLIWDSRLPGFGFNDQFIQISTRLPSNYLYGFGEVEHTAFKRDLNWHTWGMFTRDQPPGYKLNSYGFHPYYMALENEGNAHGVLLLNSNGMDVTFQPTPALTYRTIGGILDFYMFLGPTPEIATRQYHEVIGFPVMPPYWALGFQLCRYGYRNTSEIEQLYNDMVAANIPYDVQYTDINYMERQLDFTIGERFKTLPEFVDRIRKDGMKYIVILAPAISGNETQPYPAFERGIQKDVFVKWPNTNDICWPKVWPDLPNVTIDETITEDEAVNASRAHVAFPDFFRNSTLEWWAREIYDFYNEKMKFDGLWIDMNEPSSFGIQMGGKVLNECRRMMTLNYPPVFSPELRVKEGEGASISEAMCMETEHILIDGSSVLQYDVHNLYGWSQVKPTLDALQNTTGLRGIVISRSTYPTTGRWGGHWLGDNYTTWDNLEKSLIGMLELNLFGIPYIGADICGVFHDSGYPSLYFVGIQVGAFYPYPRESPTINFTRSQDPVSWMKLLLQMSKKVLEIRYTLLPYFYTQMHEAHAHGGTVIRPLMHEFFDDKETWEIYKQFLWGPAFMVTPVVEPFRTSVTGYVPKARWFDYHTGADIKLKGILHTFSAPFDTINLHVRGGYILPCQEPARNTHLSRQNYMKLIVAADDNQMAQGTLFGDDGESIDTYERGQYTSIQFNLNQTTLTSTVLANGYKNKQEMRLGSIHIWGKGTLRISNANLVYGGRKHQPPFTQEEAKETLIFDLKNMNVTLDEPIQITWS

| SMILES | inhibition [1] | inhibition [2] | inhibition [3] | inhibition [4] |
| --- | --- | --- | --- | --- |
| COc1ccc(/C=C/c2cc(O)cc(O)c2)cc1O | Active | – | – | – |
| COc1cc(O[C@@H]2C[C@H](CO)[C@@H](O)[C@H](O)[C@H]2O)c2c(O)c(C(C)=O)c(C)cc2c1 | Active | moderate activity observed | – | – |
| COc1ccc(/C=C/c2cc(O)cc(O[C@@H]3C[C@H](CO)[C@@H](O)[C@H](O)[C@H]3O)c2)cc1 | – | – | Weak activity | – |
| COc1cc(O)c2c(c1)C(=O)c1cc(C)cc(O)c1C2=O | – | – | Weak activity | Weak activity |
| Cc1cc(O)c2c(c1)C(=O)c1cccc(O[C@@H]3C[C@H](CO)[C@@H](O)[C@H](O)[C@H]3O)c1C2=O | Active | moderate activity observed | – | – |
| Cc1cc(=O)c2c(O)cc(O)cc2o1 | – | – | Weak activity | Weak activity |
